{"source": "patent US8399442B2", "about": "“Pharmaceutical compounds” (priority 2005, dated 2013)", "key": {"[1]": {"test": "Physicochemical parameters (pKa, logP, logD)"}, "physchem [2]": {"test": "physchem", "conditions": "water, thermodynamic from solid"}, "physchem [3]": {"test": "physchem", "conditions": "water"}, "Chk2": {"target": "T1, Chk2 (Homo sapiens, UniProt O96017)", "T1 construct": "purchased Upstate Discovery Ltd", "T1 sequence (O96017 whole entry)": "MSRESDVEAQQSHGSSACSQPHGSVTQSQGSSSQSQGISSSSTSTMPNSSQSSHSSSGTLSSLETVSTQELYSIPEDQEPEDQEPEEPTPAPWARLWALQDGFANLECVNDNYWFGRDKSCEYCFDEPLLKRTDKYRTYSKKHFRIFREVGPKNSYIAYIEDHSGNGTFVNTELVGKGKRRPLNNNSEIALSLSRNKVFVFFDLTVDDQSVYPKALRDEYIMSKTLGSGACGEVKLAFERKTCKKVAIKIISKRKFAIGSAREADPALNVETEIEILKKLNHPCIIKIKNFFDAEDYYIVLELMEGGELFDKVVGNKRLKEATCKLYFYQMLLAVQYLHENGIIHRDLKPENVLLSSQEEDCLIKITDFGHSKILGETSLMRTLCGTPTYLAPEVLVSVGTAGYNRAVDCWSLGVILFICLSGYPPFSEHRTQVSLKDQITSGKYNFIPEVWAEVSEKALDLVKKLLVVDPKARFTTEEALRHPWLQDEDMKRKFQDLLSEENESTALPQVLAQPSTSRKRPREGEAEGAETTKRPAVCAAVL", "test": "Kinase inhibitory activity assay (Upstate, 33P-ATP)", "format": "biochemical", "conditions": "read-out: Inhibition of kinases in vitro, % at 30 nM", "description": "Where inhibition was high an IC50 was determined."}, "[4]": {"system": "primary human mammary epithelial cells", "conditions": "24 h"}}, "note": "Counter-ions that a name gives are not always drawn.", "data": [{"compound": "1-(2,6-difluorophenyl)-N-[3-(5-morpholin-4-ylmethyl-1H-benzimidazol-2-yl)-1H-pyrazol-4-yl]-urea", "values": [{"measurement": "logP", "setting": "[1]", "result": 3.24}, {"measurement": "logPion", "setting": "[1]", "result": 0.36}, {"measurement": "logD", "setting": "[1]; pH=6", "result": 2.27}, {"measurement": "logD", "setting": "[1]; pH=6.5", "result": 2.68}, {"measurement": "logD", "setting": "[1]; pH=7.4", "result": 3.11}]}, {"compound": "O=C(Nc1c[nH]nc1-c1nc2cc(CN3CCOCC3)ccc2[nH]1)Nc1c(F)cccc1F", "note": "(as salt: hydrochloride) [1-(2,6-difluorophenyl)-N-[3-(5-morpholin-4-ylmethyl-1H-benzimidazol-2-yl)-1H-pyrazol-4-yl]-urea]", "values": [{"measurement": "melting point", "result": 190, "unit": "°C"}]}, {"compound": "O=C(Nc1c[nH]nc1-c1nc2cc(CN3CCOCC3)ccc2[nH]1)NC1CC1", "note": "[Acetate]", "values": [{"measurement": "solubility", "setting": "physchem [2]", "result": "> 100", "unit": "mg/mL"}, {"measurement": "solubility", "setting": "physchem [3]; thermodynamic from solid", "result": "> 25", "unit": "mg/mL"}]}, {"compound": "O=C(Nc1c[nH]nc1-c1nc2cc(CN3CCOCC3)ccc2[nH]1)NC1CC1", "note": "[D-Gluconate]", "values": [{"measurement": "solubility", "setting": "physchem [3]; thermodynamic from solid", "result": "> 25", "unit": "mg/mL"}]}, {"compound": "O=C(Nc1c[nH]nc1-c1nc2cc(CN3CCOCC3)ccc2[nH]1)NC1CC1", "note": "[D-Glucuronate]", "values": [{"measurement": "solubility", "setting": "physchem [2]", "result": "> 100", "unit": "mg/mL"}, {"measurement": "solubility", "setting": "physchem [3]", "result": "> 25", "unit": "mg/mL"}, {"measurement": "solubility at 20 h", "setting": "physchem [3]; thermodynamic from solid", "result": "> 50", "unit": "mg/mL"}]}, {"compound": "O=C(Nc1c[nH]nc1-c1nc2cc(CN3CCOCC3)ccc2[nH]1)NC1CC1", "note": "[compound of formula (I^0)]", "values": [{"measurement": "inhibition at 0.03 µM", "setting": "Chk2", "result": 41, "unit": "%"}, {"measurement": "effect of treatment on normal cells cf. tumor cells", "setting": "[4]", "result": "fewer become multinucleated or die after treatment, but instead undergo reversible G2/M arrest"}]}]}
